Consider 19 compounds from patent publication US20230099031A1, “BIFUNCTIONAL AGENTS FOR PROTEIN RECRUITMENT AND/OR DEGRADATION” (Orionis Biosciences, Inc., priority 2019, published 2023).

One assay deals with T1, CRBN (Homo sapiens, UniProt Q96SW2).
T1 construct: expressed in transfected cells; host or cells: HEK293T
Nature of the assay: Competition Assay: MAPPIT-like, competition with trimethoprim-lenalidomide hybrid ligand for binding to CRBN in HEK293T cells. It counts as cell-based.

Another assay has as its target T2, ESR1 (Homo sapiens, UniProt P03372+Q96SW2).
T2 construct: Full size proteins are fused for each of the target proteins tested; expressed in transfected cells; host or cells: HEK293T
Nature of the assay: Recruitment Assay (MAPPIT-like): ESR1 recruitment, pSEL-CRBN+pMG1-ESR1. It counts as cell-based. As to conditions: HEK293T cells, luciferase 24 hours after compound treatment; read-out: Recruitment EC50 (M), target protein ESR1. How it is done: In this Example 2, a similar MAPPIT-like assay is applied as described in Example 1 to determine test compound-induced binding of a particular substrate protein of interest to CRBN. In this experimental set-up, cells are transfected with a construct encoding a CRBN-fusion protein and another one encoding a substrate-fusion protein. Test compound activity is assessed with increasing concentrations of test compounds (dose-response studies) to monitor the ability to promote CRBN-ligand-induced protein interaction.
Specifically, HEK293T cells are transfected with a plasmid encoding the MAPPIT receptor fusion wherein the protein of interest (CRBN or substrate protein) is genetically linked to a cytoplasmic domain of the leptin receptor, which itself is fused to the extracellular domain of the erythropoietin (Epo) receptor (pSEL-X, where X represents either CRBN or any of the tested substrate proteins of interest) or to the extracellular domain of the leptin receptor (pCLG-X, where X represents either CRBN or any of the tested substrate proteins of interest), a plasmid encoding the MAPPIT gp130 fusion (pMG1-Y, Y being either any of the tested substrate proteins or CRBN) and a STAT3-responsive luciferase-encoding reporter plasmid (pXP2d2-rPAPI-luciferase reporter plasmid), as described (Lievens, et al. “Array MAPPIT: high-throughput interactome analysis in mammalian cells.” Journal of Proteome Research 8.2 (2009): 877-886). Full size proteins are fused for each of the target proteins tested, except in the case of IKZF1 where isoform 7 is used, and BRD4, where isoform 3 is applied. […] Luciferase activity is measured 24 hours after test compound treatment using the Luciferase Assay System kit (PROMEGA, Madison, Wis.) with an Ensight plate reader (PERKIN ELMER LIFE SCIENCES, Waltham, Mass.). […]

For another assay, the target named is T3, DHFR (UniProt P0ABQ4+Q96SW2).
T3 construct: Full size proteins are fused for each of the target proteins tested; expressed in transfected cells; host or cells: HEK293T
Nature of the assay: Recruitment Assay (MAPPIT-like): DHFR recruitment to CRBN, pCLG-DHFR+pMG1-CRBN. It counts as cell-based, E. coli. As to conditions: for EC50: HEK293T cells, luciferase 24 hours after compound treatment, read-out: Recruitment EC50 (M), target protein DHFR. On the procedure: (§1) In this experimental set-up, cells are transfected with a construct encoding a CRBN-fusion protein and another one encoding a substrate-fusion protein. Test compound activity is assessed with increasing concentrations of test compounds (dose-response studies) to monitor the ability to promote CRBN-ligand-induced protein interaction.
(§2) Full size proteins are fused for each of the target proteins tested, except in the case of IKZF1 where isoform 7 is used, and BRD4, where isoform 3 is applied. For the study, the following construct combinations are used: IKZF1 recruitment: pSEL-CRBN+pMG1-IKZF1(isoform 7); ASS1 recruitment: pSEL-CRBN+pMG1-ASS1; SALL4 recruitment: pSEL-SALL4+pMG1-CRBN; DHFR recruitment: pCLG-DHFR+pMG1-CRBN; ESR1 recruitment: pSEL-CRBN+pMG1-ESR1; BRD4 recruitment: pSEL-CRBN+pMG1-BRD4(isoform 3). Cells are treated with erythropoietin (Epo; where pSEL-type receptor fusions constructs are used) or leptin (in the case pCLG-type receptor fusion constructs are applied) without or with the indicated dose of test compound at 24 hours after transfection. Luciferase activity is measured 24 hours after test compound treatment using the Luciferase Assay System kit (PROMEGA, Madison, Wis.) with an Ensight plate reader (PERKIN ELMER LIFE SCIENCES, Waltham, Mass.). Data points depict fold induction of the average luciferase activity of triplicate samples from Epo or leptin+test compound treated cells versus Epo or leptin only treated cells. Error bars represent standard deviations. Curves are fit using 4-parameter nonlinear regression in […] PRISM software.
Error bars represent standard deviations and curves were fit using 4-parameter nonlinear regression in […] PRISM software.

The target of a further assay is T4, IKZF1 (Homo sapiens, UniProt Q13422+Q96SW2).
T4 construct: expressed in transfected cells; host or cells: HEK293T
Nature of the assay: Recruitment Assay (MAPPIT-like): IKZF1 recruitment, pSEL-CRBN+pMG1-IKZF1(isoform 7). It counts as cell-based. As to conditions: recruitment of IKZF1, protocol of Example 2; read-out: EC50_IKZF1. How it is done:
as §1, §2

For the next assay, the target named is T5, ASS1 (Homo sapiens, UniProt P00966+Q96SW2).
T5 construct: Full size proteins are fused for each of the target proteins tested; expressed in transfected cells; host or cells: HEK293T
Nature of the assay: Recruitment Assay (MAPPIT-like): ASS1 recruitment, pSEL-CRBN+pMG1-ASS1. It counts as cell-based. As to conditions: recruitment of ASS1, protocol of Example 2; for pEC50: read-out: EC50_ASS1. On the procedure: as §1, §2

The subject of a further assay is IKZF1, ASS1 and SALL4. Nature of the assay: Recruitment assessment: recruitment of any tested substrate from among IKZF1, ASS1 and SALL4 (MAPPIT-like recruitment assays). It counts as cell-based. As to conditions: any tested substrate among IKZF1, ASS1, SALL4 at any tested concentration.
Another assay concerns the target T6, SALL4 (Homo sapiens, UniProt Q96SW2+Q9UJQ4).
T6 construct: Full size proteins are fused for each of the target proteins tested; expressed in transfected cells; host or cells: HEK293T
Nature of the assay: Recruitment Assay (MAPPIT-like): SALL4 recruitment, pSEL-SALL4+pMG1-CRBN. As to conditions: recruitment of SALL4, protocol of Example 2; read-out: EC50_SALL4. It counts as cell-based. In a few lines: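 Cells co-transfected with CRBN- and substrate-fusion constructs (pSEL-CRBN+pMG1-ASS1; pSEL-SALL4+pMG1-CRBN; pSEL-CRBN+pMG1-IKZF1 isoform 7), then treated 24 h post-transfection with Epo ± compound dose series. Luciferase read after 24 h as fold induction over Epo alone (triplicates); 4-parameter nonlinear fit.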

The mark [1] stands for this setting: HEK293T cells, 300 nM trimethoprim-lenalidomide hybrid ligand, luciferase 24 hours after compound treatment, read-out: Competition IC50.
The mark [2] stands for this setting: protocol and reagents of Example 1, read-out: IC50 Competition.

pEC50, pIC50: −log10 of the molar value. Where two headings read alike, the source gives them in different places. Some results are limits rather than exact numbers.

A word on the pIC50: it is the IC50 on a negative log10 scale, so that one unit is a factor of ten. As a reminder, the EC50 is the concentration at which the effect is half-maximal.

As to `CC/C(=C(\c1ccccc1)c1ccc(OCCN(C)CC(=O)NCCOCCOCCOCCOCCNC(=O)COc2cccc3c2CN(C2CCC(=O)NC2=O)C3=O)cc1)c1ccccc1` (stereo not drawn) [Compound 5.53], the pIC50 at CRBN (setting [1]) is 5.86. Further, the EC50 on ESR1 was 7.35e-07 M.

On to `COc1cc(Cc2cnc(N)nc2N)cc(OC)c1OCCCCC(=O)NCCOCCOCCOCCNC(=O)c1ccc2ncnc(Nc3ccc4c(c3)C(=O)N(C3CCC(=O)NC3=O)C4)c2c1` (stereo not drawn) [Compound 5.19], for which, on DHFR, the EC50 came to 4.2e-09 M.

`COc1cc(Cc2cnc(N)nc2N)cc(OC)c1OCCCCC(=O)NCCOCCOCCOCCNC(=O)c1ccc2c(c1)CN(C(=O)CNc1ccc3c(c1)C(=O)N(C1CCC(=O)NC1=O)C3)C2` (stereo not drawn) [Compound 5.46]: the EC50 on DHFR is 1.44e-08 M.

For `COc1cc(Cc2cnc(N)nc2N)cc(OC)c1OCCCCC(=O)NCCOCCOCCOCCNC(=O)c1cccc(CNC(=O)CNc2ccc3c(c2)C(=O)N(C2CCC(=O)NC2=O)C3)c1` (stereo not drawn) [Compound 5.12], the EC50 at DHFR was 3.55e-08 M.

As to `COc1cc(Cc2cnc(N)nc2N)cc(OC)c1OCCCCC(=O)NCCOCCOCCOCCNC(=O)CN1CCN(C(=O)CNc2ccc3c(c2)C(=O)N(C2CCC(=O)NC2=O)C3)C(C)C1` (stereo not drawn) [Compound 5.26], the EC50 on DHFR was 4.5e-07 M.

`Cc1ccc(NC(=O)NCc2ccc3c(c2)CN(C2CCC(=O)NC2=O)C3=O)cc1Cl` (stereo not drawn) [CC-885, 1-(3-chloro-4-methyl-phenyl)-3-[[2-(2,6-dioxo-3-piperidyl)-1-oxo-isoindolin-5-yl]methyl]urea, reference compound]: the negative logarithm of the IC50 (pIC50) on CRBN (setting [2]) was 9.33. The results for the pEC50 on IKZF1 and at ASS1 were greater than 7.86 and 7.10, respectively. In addition, the “Recruitment Assessment” value with IKZF1, ASS1 and SALL4 is “TRUE”.

In the case of `CC/C(=C(\c1ccccc1)c1ccc(OCCN(C)CC(=O)NCCOCCOCCOCCNC(=O)COc2cccc3c2CN(C2CCC(=O)NC2=O)C3=O)cc1)c1ccccc1` (stereo not drawn) [Compound 5.55], the pIC50 on CRBN (setting [1]) was 5.98. Besides, the EC50 on ESR1 turned out to be 4.42e-07 M.

For the compound `COc1cc(Cc2cnc(N)nc2N)cc(OC)c1OCCCCC(=O)NCCOCCOCCOCCn1cc(CCC(=O)Nc2cccc3c2CN(C2CCC(=O)NC2=O)C3=O)nn1` (stereo not drawn) [TMP-LEN, Trimethoprim-lenalidomide], the “hybrid ligand-induced binding between CRBN and DHFR (MAPPIT signal, FIG. 3)” value on DHFR (CRBN as gp130 fusion, DHFR linked to MAPPIT chimeric membrane receptor) is “dose-dependent signal can be observed”. For the same compound, the EC50 at DHFR amounted to 1.86e-08 M.

For the compound `COc1cc(Cc2cnc(N)nc2N)cc(OC)c1OCCCCC(=O)NCCOCCOCCOCCNC(=O)Cn1cc(CN(C)C(=O)CNc2ccc3c(c2)C(=O)N(C2CCC(=O)NC2=O)C3)cn1` (stereo not drawn) [Compound 5.23], the EC50 on DHFR amounted to 1.19e-07 M.

Consider `O=C1CCC(N2Cc3ccc(NC(=O)c4cnc5[nH]cnc5c4)cc3C2=O)C(=O)N1` (stereo not drawn) [Compound C80394, N-[2-(2,6-dioxo-3-piperidyl)-3-oxo-isoindolin-5-yl]-3H-imidazo[4,5-b]pyridine-6-carboxamide], for which the pIC50 at CRBN (setting [2]) is 5.10. Further, the “Recruitment Assessment” value with IKZF1, ASS1 and SALL4 is recorded as “TRUE”.

In the case of `CC1c2ccccc2C(=O)N1C1CCC(=O)NC1=O` (stereo not drawn) [Compound C51383, 3-(1-methyl-3-oxo-isoindolin-2-yl)piperidine-2,6-dione], the pIC50 on CRBN (setting [2]) is 6.72. In addition, the results for the pEC50 at IKZF1, on SALL4 and on ASS1 were 5.82, 7.23 and 5.77, respectively.

With `N#Cc1ccc2c(c1)C(=O)N(C1CCC(=O)NC1=O)C2` (stereo not drawn) [Compound C48007, 2-(2,6-dioxo-3-piperidyl)-3-oxo-isoindoline-5-carbonitrile], the pIC50 on CRBN (setting [2]) is 5.87. For the same compound, the pEC50 on IKZF1 was 5.79; on SALL4, 6.37. The “EC50_ASS1 (M)” value at ASS1 is reported as “>>”.

For `O=C1CCC(N2Cc3c(NC(=O)Nc4cccc5c4CN(C4CCC(=O)NC4=O)C5=O)cccc3C2=O)C(=O)N1` (stereo not drawn) [Compound C30231, 1,3-bis[2-(2,6-dioxo-3-piperidyl)-1-oxo-isoindolin-4-yl]urea], the pIC50 on CRBN (setting [2]) was 3.61. Also, the values for the pEC50 at IKZF1 and at SALL4 were 5.56 and 5.75, respectively. Besides, the “EC50_ASS1 (M)” value at ASS1 is on record as “>>”.

Consider `COc1cc(Cc2cnc(N)cc2N)cc(OC)c1OCCCCC(=O)NCCOCCOCCOCCNC(=O)COc1ccc2nc(C(=O)Cc3ccc4c(c3)C(=O)N(C3CCC(=O)NC3=O)C4)ccc2c1` (stereo not drawn) [Compound 5.10], for which the EC50 on DHFR was determined as 7.95e-08 M.

As to `O=C(O)CN1CCN(Cc2ccc(COc3cccc4c3CN(C3CCC(=O)NC3=O)C4=O)cc2)CC1` (stereo not drawn) [ZE26-0001, formic acid], the pIC50 at CRBN (setting [2]) is 5.24. In addition, the pEC50 at IKZF1 was 5.33; at SALL4 it was 6.10. On ASS1, the “EC50_ASS1 (M)” value was “>>”.

Turning to `CC/C(=C(\c1ccccc1)c1ccc(OCCN(C)CC(=O)NCCOCCOCCNC(=O)COc2cccc3c2CN(C2CCC(=O)NC2=O)C3=O)cc1)c1ccccc1` (stereo not drawn) [Compound 5.54], the pIC50 at CRBN (setting [1]) was 6.08. In addition, at ESR1, the EC50 was 1.35e-07 M.

As to `COc1cc(Cc2cnc(N)nc2N)cc(OC)c1OCCCCC(=O)NCCOCCOCCOCCNC(=O)c1ccc2c(Nc3ccc4c(c3)C(=O)N(C3CCC(=O)NC3=O)C4)ncnc2c1` (stereo not drawn) [Compound 5.20], the EC50 at DHFR was 1.01e-08 M.

Regarding `COc1cc(Cc2cnc(N)nc2N)cc(OC)c1OCCCCC(=O)NCCOCCOCCOCCNC(=O)COc1ccc(Br)c2c1C(=O)N(C1CCC(=O)NC1=O)C2` (stereo not drawn) [Compound 5.13], the EC50 on DHFR was 4.69e-07 M.

Take `CS(=O)(=O)Nc1cccc2c1CN(C1CCC(=O)NC1=O)C2=O` (stereo not drawn) [Compound C22548, N-[2-(2,6-dioxo-3-piperidyl)-1-oxo-isoindolin-4-yl]methanesulfonamide]: at CRBN (setting [2]), the pIC50 was 5.95. In addition, the pEC50 at IKZF1 is 6.31; at SALL4, 6.20. Further, on ASS1, the “EC50_ASS1 (M)” value was “>>”.
